Test systems include UACC-257 melanoma; T-47D breast; MCF7 breast; KM12 colon; KM20L2 colon; RXF 393 renal; SK-MEL-28 melanoma; DMS 114 small cell lung; HCT-15 colon; SNB-78 CNS.
What all share (assay): growth of human tumour cells (NCI), 48 h

Where “and” joins values, the source holds several entries; their conditions need not be identical. Equal values may be shown once.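 Dose response: 5 concentrations. Exposure: 48 h. Format: 96-well plates. Endpoint: linear interpolation; highest concentration if not reached. GI50: concentration for 50% inhibition of growth. TGI: concentration producing complete growth inhibition.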 Where a SMILES comes first, the peptide text is derived from it.

`O=C(O)C1NCCc2c1[nH]c1ccccc21` (centres undefined): the GI50 in the experiment on UACC-257 melanoma, with KM12 colon, in the experiment with SK-MEL-28 melanoma and in the experiment on HCT-15 colon was greater than 100 µM in each case. The TGI in the experiment with UACC-257 melanoma was greater than 100 µM; in the experiment with T-47D breast it was greater than 10 µM; in the experiment with MCF7 breast it was greater than 10 µM; in the experiment with KM12 colon, greater than 100 µM; in the experiment with KM20L2 colon, greater than 100 µM; in the experiment with RXF 393 renal, greater than 10 µM. In addition, the TGI in the experiment with SK-MEL-28 melanoma, in the experiment with DMS 114 small cell lung, with HCT-15 colon and in the experiment with SNB-78 CNS was greater than 100 µM in each case.

Consider `CC(=O)O[C@H]1C(=O)O[C@@H]2C[C@H]3C(C)=CC(=O)[C@@H](O)[C@]3(C)[C@H]3[C@@]4(O)OC[C@]32[C@@H]1[C@@H](C)[C@H]4O`, for which the GI50 in the experiment with UACC-257 melanoma is 0.0322 µM; in the experiment on MCF7 breast, less than 0.01 µM; in the experiment on KM12 colon, 0.0178 µM; in the experiment with RXF 393 renal it was 0.0481 µM; in the experiment on SK-MEL-28 melanoma, less than 0.0104 µM; with HCT-15 colon, 0.0399 µM. The TGI was 0.137 µM in the experiment on UACC-257 melanoma; 0.0593 µM and 0.0543 µM in the experiment on MCF7 breast; 0.317 µM and 0.306 µM in the experiment on KM12 colon; 2.43 µM with KM20L2 colon; 0.503 µM and 0.108 µM with RXF 393 renal; 0.0577 µM and 0.142 µM in the experiment with SK-MEL-28 melanoma. Also, the TGI was 0.041 µM in the experiment on DMS 114 small cell lung; 0.738 µM and 1.03 µM with HCT-15 colon; 0.384 µM in the experiment on SNB-78 CNS.

For the compound `CC(C)CC(NC(=O)C(CC(C)C)NC(=O)C(Cc1cnc[nH]1)NC(=O)C(C)NC(=O)C(NC(=O)C(C)NC(=O)C(Cc1c[nH]c2ccccc12)NC(=O)C(CCC(=O)O)NC(=O)C(N)Cc1ccccc1)C(C)C)C(N)=O` (centres undefined) (H-FEWAVAHLL-NH2; configuration not given here), the GI50 in the experiment on UACC-257 melanoma, with KM12 colon, in the experiment on RXF 393 renal and in the experiment on HCT-15 colon was greater than 100 µM in each case. In addition, the TGI in the experiment on UACC-257 melanoma was greater than 100 µM; with T-47D breast, greater than 12.5 µM; in the experiment on MCF7 breast, greater than 12.5 µM; with KM12 colon, greater than 100 µM; with KM20L2 colon it was greater than 100 µM; in the experiment with RXF 393 renal, greater than 100 µM. The TGI in the experiment on SK-MEL-28 melanoma, in the experiment on DMS 114 small cell lung, with HCT-15 colon and with SNB-78 CNS was greater than 100 µM each time.

Regarding `CN(C)C(=O)/N=c1\ss/c(=N\C(=S)N(C)C)n1-c1ccccc1`, the TGI was 28.6 µM with UACC-257 melanoma; greater than 100 µM with KM12 colon; greater than 100 µM in the experiment with KM20L2 colon; greater than 79.9 µM with RXF 393 renal; greater than 56.6 µM in the experiment on SK-MEL-28 melanoma; greater than 100 µM in the experiment on HCT-15 colon. In addition, the TGI with SNB-78 CNS is greater than 100 µM. For the same compound, in the experiment on DMS 114 small cell lung, the GI50 is 0.0334 µM.

As to `Cc1ccccc1NC(=O)C(=O)C(c1cnc2ccc([N+](=O)[O-])cc2n1)[N+](=O)[O-]` (centres undefined), the TGI with UACC-257 melanoma, in the experiment on KM12 colon, in the experiment with KM20L2 colon, in the experiment on RXF 393 renal, in the experiment with SK-MEL-28 melanoma and in the experiment with DMS 114 small cell lung was greater than 100 µM each time. Besides, the TGI in the experiment with HCT-15 colon and in the experiment on SNB-78 CNS was greater than 100 µM in each case.

`N=C1N(c2ccccc2)C(=O)C23CCCC2C13N1CCOCC1` (centres undefined): the TGI with UACC-257 melanoma, in the experiment with KM12 colon, with KM20L2 colon, in the experiment with RXF 393 renal, in the experiment on SK-MEL-28 melanoma and in the experiment with DMS 114 small cell lung was greater than 100 µM in each case. In addition, the TGI in the experiment with HCT-15 colon and in the experiment with SNB-78 CNS was greater than 100 µM throughout.

Turning to `C=C[C@]1(C)CCC2=C(CCC3C2(C)CCC[C@]3(C)CO)C1` (some centres undefined), the TGI is greater than 100 µM with UACC-257 melanoma; greater than 100 µM with KM12 colon; 42.3 µM in the experiment with KM20L2 colon; 84.4 µM in the experiment with RXF 393 renal; greater than 100 µM in the experiment on SK-MEL-28 melanoma; 74.6 µM with DMS 114 small cell lung. For the same compound, the TGI with HCT-15 colon and in the experiment with SNB-78 CNS was greater than 100 µM throughout.

Turning to `COc1cc2nc(Sc3c([N+](=O)[O-])ncn3C)[nH]c2cc1OC`, the TGI in the experiment with UACC-257 melanoma is 78.3 µM; in the experiment with KM12 colon it was greater than 100 µM; in the experiment on KM20L2 colon, greater than 100 µM; in the experiment on RXF 393 renal, 43.9 µM; in the experiment with SK-MEL-28 melanoma, greater than 100 µM; in the experiment on DMS 114 small cell lung, 25.8 µM. In addition, the TGI in the experiment with HCT-15 colon and in the experiment on SNB-78 CNS was greater than 100 µM throughout.

With `COC(=O)C1(C(=O)OC)CC2c3c(c4ccccc4n3C)CC(C1=O)N2Cc1ccccc1` (centres undefined), the TGI in the experiment on UACC-257 melanoma, in the experiment with KM12 colon, in the experiment with KM20L2 colon, with RXF 393 renal, with SK-MEL-28 melanoma and in the experiment on DMS 114 small cell lung was greater than 100 µM each time. For the same compound, the TGI with HCT-15 colon and with SNB-78 CNS was greater than 100 µM throughout.

For the compound `COc1cc(-c2cc(=O)c3ccccc3o2)ccc1N`, the TGI in the experiment on UACC-257 melanoma, in the experiment with KM12 colon, in the experiment with KM20L2 colon, in the experiment with RXF 393 renal, in the experiment on SK-MEL-28 melanoma and with DMS 114 small cell lung was greater than 100 µM each time. In addition, the TGI in the experiment on HCT-15 colon and in the experiment with SNB-78 CNS was greater than 100 µM each time.

These data come from PubChem BioAssay (NCI).
